Earlier results on 55 molecules are cited in patent publication US20240050950A1, “GRADIENT-BASED MICROFLUIDIC CIRCUIT, DEVICE, AND METHOD FOR PERFORMING AN ASSAY” (priority 2020, published 2024).

The labels stand for the following.
B1: Neocarzinostatin (protein, UniProt P0A3R9 35-147, looked up)
Neocarzinostatin: AAPTATVTPSSGLSDGTVVKVAGAGLQAGTAYDVGQCAWVDTGVLACNPADFSSVTADANGSASTSLTVRRSFEGFLFDGTRWGTVDCTTAACQVGLSDAAGNGPEGVAISFN
modifications: enediyne chromophore

Structures can show the parent of a compound that is named as a salt.

For one data set the following is noted: Table 1, antimicrobial agents/drugs; cited from earlier work.
`Cc1onc(-c2ccccc2)c1C(=O)N[C@@H]1C(=O)N2[C@@H]1SC(C)(C)[C@@H]2C(=O)O` [Oxacillin]: the Molar volume was 268.4 ± 5.0 cm^3.

Take `Cc1c2oc3c(C)c(N)cc(C(=O)N[C@@H]4C(=O)N[C@H](C(C)C)C(=O)N5CCC[C@H]5C(=O)N(C)CC(=O)N(C)[C@@H](C(C)C)C(=O)O[C@@H]4C)c3nc-2c(C(=O)N[C@@H]2C(=O)N[C@H](C(C)C)C(=O)N3CCC[C@H]3C(=O)N(C)CC(=O)N(C)[C@@H](C(C)C)C(=O)O[C@@H]2C)c(N)c1=O` [7-Aminoactinomycin D (7-ADD), 7-Aminoactinomycin D]: the Molar volume is listed as 877.3 ± 7.0 cm^3.

Take `C/C=C/[C@H]1O[C@@](O)([C@@H](C)[C@H](O)[C@H](C)[C@H]2OC(=O)/C(OC)=C/C(C)=C/[C@@H](C)[C@@H](O)[C@@H](CC)[C@@H](O)[C@H](C)C/C(C)=C/C=C/[C@@H]2OC)C[C@@H](O[C@H]2C[C@@H](O)[C@H](OC(N)=O)[C@@H](C)O2)[C@@H]1C` [Concanamycin A (Folimycin), Concanamycin A]: the Molar volume is 703.1 ± 7.0 cm^3.

`COC(=O)Nc1nc2ccc(C(=O)c3ccccc3)cc2[nH]1` [Mebendazole]: the Molar volume is 212.6 ± 3.0 cm^3.

Regarding “Mithramycin A [Mithramycin A (Plicamycin)]”, the Molar volume is recorded as 728.3 ± 5.0 cm^3.

In the case of Neomycin, the Molar volume is recorded as 380.3 ± 5.0 cm^3.

On to `CCn1cc(C(=O)O)c(=O)c2cc3c(cc21)OCO3` [Oxolinic acid], for which the Molar volume was 176.1 ± 3.0 cm^3.

For `CC1(C)S[C@@H]2[C@H](NC(=O)[C@H](NC(=O)N3CCNC3=O)c3ccccc3)C(=O)N2[C@H]1C(=O)O` [D-α-([Imidazolidin-2-on-1-yl]carbonylamino)benzylpenicillin], the Molar volume was 296.6 ± 5.0 cm^3.

Regarding `CC[C@@H](CO)NCCN[C@@H](CC)CO` [Ethambutol ((+)-S,S-Ethambutol), Ethambutol], the Molar volume is reported as 207.0 ± 3.0 cm^3.

Consider `COc1ccc(C[C@H]2NC[C@H](O)[C@H]2OC(C)=O)cc1` [Anisomycin (or, Flagecidin), Anisomycin], for which the Molar volume was 218.6 ± 5.0 cm^3.

For the molecule `CO[C@@H]1[C@@H](OC(N)=O)[C@@H](O)[C@H](Oc2ccc3c(O)c(NC(=O)c4ccc(O)c(CC=C(C)C)c4)c(=O)oc3c2C)OC1(C)C` [Novobiocin], the Molar volume is reported as 430.9 ± 5.0 cm^3.

In the case of `CO[C@H]1[C@@H](OC)C[C@H](C)[C@@H](OC)C2=CC(=O)C=C(NC(=O)/C(C)=C/C=C\[C@H](OC)[C@@H](OC(N)=O)/C(C)=C/[C@@H]1C)C2=O` [Herbimycin A], the Molar volume is listed as 479.9 ± 5.0 cm^3.

In the case of gramicidin s, the Molar volume is 919.5 ± 5.0 cm^3.

With `CC[C@H](C)C(=O)O[C@H]1CCC=C2C=C[C@H](C)[C@H](CC[C@@H]3C[C@@H](O)CC(=O)O3)[C@H]21` [Mevastatin], the Molar volume is 343.8 ± 5.0 cm^3.

As for `CN[C@@H]1[C@@H](O)[C@@H](O[C@@H]2[C@@H](O)[C@H](O[C@H]3O[C@H]([C@@H](C)O)[C@@H](O)[C@H](O)[C@H]3N)[C@@H](N)C[C@H]2N)OC[C@]1(C)O` [G 418], the Molar volume was 336.3 ± 5.0 cm^3.

Regarding `COc1c(N2CCNC(C)C2)c(F)cc2c(=O)c(C(=O)O)cn(C3CC3)c12` (stereo not shown) [Gatifloxacin], the Molar volume was 270.7 ± 3.0 cm^3.

Ivermectin Bla: the Molar volume was 708.3 ± 5.0 cm^3.

For `CN(C)[C@@H]1C(O)=C(C(N)=O)C(=O)[C@@]2(O)C(O)=C3C(=O)c4c(O)ccc(Cl)c4[C@@H](O)[C@H]3C[C@@H]12` [Demeclocycline], the Molar volume is given as 265.1 ± 5.0 cm^3.

For the molecule `N=C(N)c1ccc(OCCCCCOc2ccc(C(=N)N)cc2)cc1` [Pentamidine], the Molar volume was 281.4 ± 7.0 cm^3.

Take `COC(=O)[C@@]1(O)C[C@H]2O[C@]1(C)n1c3ccccc3c3c4c(c5c6ccccc6n2c5c31)C(=O)NC4` [K-252a]: the Molar volume is recorded as 278.7 ± 7.0 cm^3.

Consider Aculeacin A, for which the Molar volume is listed as 754.1 ± 5.0 cm^3.

Consider `CC[C@H]1OC(=O)[C@H](C)[C@@H](O[C@H]2C[C@@](C)(OC)[C@@H](O)[C@H](C)O2)[C@H](C)[C@@H](O[C@@H]2O[C@H](C)C[C@H](N(C)C)[C@H]2O)[C@](C)(O)C[C@@H](C)CN(C)[C@H](C)[C@@H](O)[C@]1(C)O` [Azithromycin], for which the Molar volume is listed as 632.6 ± 5.0 cm^3.

Turning to `CO[C@H]1[C@H](OC(=O)c2ccc(C)[nH]2)[C@H](O)[C@@H](Oc2ccc3c(O)c(NC(=O)c4c[nH]c(C(=O)Nc5c(O)c6ccc(O[C@H]7OC(C)(C)[C@@H](OC)[C@H](OC(=O)c8ccc(C)[nH]8)[C@@H]7O)c(C)c6oc5=O)c4C)c(=O)oc3c2C)OC1(C)C` [Coumermycin Al, Coumermycin A1], the Molar volume is on record as 718.6 ± 5.0 cm^3.

Turning to `Cc1ncc([N+](=O)[O-])n1CCO` [Metronidazole], the Molar volume is reported as 117.8 ± 7.0 cm^3.

Regarding `CC(C(=O)O)c1ccc(-c2ccccc2)c(F)c1` (stereo not shown) [Flurbiprofen], the Molar volume is given as 203.6 ± 3.0 cm^3.

Consider Magainin I, for which the Molar volume is given as 1900.4 ± 3.0 cm^3.

For the molecule `COc1ccc(C[C@H](N)C(=O)N[C@H]2[C@@H](O)[C@H](n3cnc4c(N(C)C)ncnc43)O[C@@H]2CO)cc1` [PUROMYCIN], the Molar volume is given as 311.7 ± 7.0 cm^3.

As for `CCCCC[C@H](CC(=O)NO)C(=O)N[C@H](C(=O)N1CCC[C@H]1CO)C(C)C` [Actinonin], the Molar volume is 338.1 ± 3.0 cm^3.

Turning to `CC(C)C[C@@H](N)[C@H](O)C(=O)N[C@H](C(=O)N[C@H](C(=O)N[C@@H](CC(=O)O)C(=O)O)C(C)C)C(C)C` [Amastatin], the Molar volume was 386.4 ± 3.0 cm^3.

`Nc1ncnc2c1ncn2[C@@H]1O[C@H](CO)C[C@H]1O` [Cordycepin (3′-Deoxyadenosine), 3′-Deoxyadenosine]: the Molar volume is recorded as 130.8 ± 7.0 cm^3.

In the case of B1, the Molar volume is recorded as 434.9 ± 5.0 cm^3.

Staying with this data set, now noted: Table 2, anticancer drugs; cited from earlier work.
In the case of `O=C(/C=C/c1cccc(S(=O)(=O)Nc2ccccc2)c1)NO` [Beleodaq (Belinostat), Belinostat], the Molar volume is recorded as 222.9 ± 3.0 cm^3.

On to `CC(C)[C@@H]1NC(=O)[C@H](CCCCN)NC(=O)[C@@H](Cc2c[nH]c3ccccc23)NC(=O)[C@H](Cc2ccc(O)cc2)NC(=O)[C@@H](NC(=O)[C@H](N)Cc2ccc3ccccc3c2)CSSC[C@@H](C(=O)N[C@H](C(N)=O)[C@@H](C)O)NC1=O` [Lanreotide Acetate], for which the Molar volume is 781.0 ± 5.0 cm^3.

As for `CNC(=O)c1ccc(N2C(=S)N(c3cnc(C#N)c(C(F)(F)F)c3)C(=O)C23CCC3)cc1F` [Apalutamide], the Molar volume was 300.1 ± 5.0 cm^3.

On to `Nc1nc2nc[nH]c2c(=S)[nH]1` [Tabloid (Thioguanine), Thioguanine], for which the Molar volume is on record as 96.4 ± 3.0 cm^3.

Take Alemtuzumab: the Molar volume is given as 165.7 ± 7.0 cm^3.

In the case of `Nc1nc(Cl)nc2c1ncn2[C@H]1C[C@H](O)[C@@H](CO)O1` [Cladribine], the Molar volume is 140.1 ± 7.0 cm^3.

For `Nc1ccn([C@@H]2O[C@H](CO)[C@@H](O)[C@@H]2O)c(=O)n1` [Cytarabine (Tarabine PFS), Cytarabine], the Molar volume is 128.4 ± 7.0 cm^3.

As to `CN1C2CCCC1CC(NC(=O)c1nn(C)c3ccccc13)C2` (stereo not shown) [Granisetron], the Molar volume is recorded as 234.8 ± 7.0 cm^3.

Consider `N#Cc1ccnc(N2C(=O)CC[C@H]2C(=O)N(c2cncc(F)c2)[C@H](C(=O)NC2CC(F)(F)C2)c2ccccc2Cl)c1` [Ivosidenib (Tibsovo), Ivosidenib], for which the Molar volume was 383.5 ± 5.0 cm^3.

As for `Nc1nc2[nH]cc(CCc3ccc(C(=O)N[C@@H](CCC(=O)O)C(=O)O)cc3)c2c(=O)[nH]1` [Alimta (Pemetrexed Disodium), Pemetrexed Disodium], the Molar volume is given as 268.0 ± 7.0 cm^3.

In the case of `N#Cc1ccc(C(c2ccc(C#N)cc2)n2cncn2)cc1` [Femara (Letrozole), Letrozole], the Molar volume is given as 234.5 ± 7.0 cm^3.

For `C=C1C[C@@H]2[C@H](CC[C@]3(C)C(=O)CC[C@@H]23)[C@@]2(C)C=CC(=O)C=C12` [Aromasin (Exemestane), Exemestane], the Molar volume is recorded as 260.5 ± 5.0 cm^3.

Turning to `C[C@@H](CN1CC(=O)NC(=O)C1)N1CC(=O)NC(=O)C1` [Dexrazoxane Hydrochloride], the Molar volume is recorded as 201.2 ± 3.0 cm^3.

As for “Gilteritinib Fumarate [Xospata (Gilteritinib Fumarate)]”, the Molar volume is given as 444.9 ± 3.0 cm^3.

In the case of Epoetin Alfa, the Molar volume was 665.6 ± 5.0 cm^3.

As for `CN(Cc1cnc2nc(N)nc(N)c2n1)c1ccc(C(=O)N[C@@H](CCC(=O)O)C(=O)O)cc1` [Methotrexate], the Molar volume is on record as 295.6 ± 3.0 cm^3.

Consider `Cc1cc(Nc2ncc(Cl)c(Nc3ccccc3S(=O)(=O)C(C)C)n2)c(OC(C)C)cc1C1CCNCC1` [Ceritinib (Zykadia), Ceritinib], for which the Molar volume is listed as 445.9 ± 3.0 cm^3.

With `COC(=O)N[C@@H](C)CNc1nccc(-c2cn(C(C)C)nc2-c2cc(Cl)cc(NS(C)(=O)=O)c2F)n1` [Braftovi (Encorafenib), Encorafenib], the Molar volume is reported as 371.6 ± 7.0 cm^3.

Take `N#CC[C@H](C1CCCC1)n1cc(-c2ncnc3[nH]ccc23)cn1` [Ruxolitinib phosphate]: the Molar volume is on record as 218.6 ± 7.0 cm^3.

Still in this data set, the particulars now being: Table 3, antifungal drugs and other molecules; cited from earlier work.
As for `CCCCC[C@@H](O)[C@H]1C(=O)O[C@H](C)[C@@H](O)/C=C/C=C/C=C/C=C/C=C(\C)[C@@H](O)C[C@H](O)C[C@H](O)C[C@H](O)C[C@H](O)C[C@H](O)C[C@@H]1O` [Filipin], the Molar volume is 563.7 ± 3.0 cm^3.

On to `Cc1cccc(N(C)C(=S)Oc2ccc3ccccc3c2)c1` [Tolnaftate], for which the Molar volume is on record as 251.1 ± 3.0 cm^3.

Take `Cc1ccc(C(=O)N2CCN(c3ccc([N+](=O)[O-])cc3)CC2)cc1Cl` [Filastatin]: the Molar volume is recorded as 269.8 ± 3.0 cm^3.

On to `Clc1ccc(C(Cn2ccnc2)OCc2ccsc2Cl)c(Cl)c1` (stereo not shown) [Tioconazole], for which the Molar volume is given as 269.0 ± 7.0 cm^3.

Take Fengycin [Fengycin (Plipastatin)]: the Molar volume was 1105.9 ± 5.0 cm^3.
